Laboratory results reported in patent US20230146455A1, “TREATMENT OF INFLAMMATORY DISEASES WITH PEPTIDES AND PHARMACEUTICAL COMPOSITIONS” (Yuyu Pharma, Inc., priority 2020, published 2023).
Where “and” joins values, the source holds several entries; their conditions need not be identical. Identical values can stand only once. Where a SMILES comes first, the peptide text is derived from it. [ ]: non-standard residue; d: D form. Hyp = O=C(O)[C@@H]1C[C@@H](O)CN1

System: human PBMCs
Assay: PBMC cell counts (total, live, viability; trypan blue, Countess) with and without LPS and test articles (Example 9)
Type: cell-based
Experimental: Treatment Human PBMCs were pretreated with YY-101, YDE-011 and YDE-043 or reference compound; Xiidra® at various concentration (ranging from 1 nM to 100 uM) for 2 h before stimulation. An equal volume of 0.5% DMSO was used as a vehicle control. Then, the cells were treated with LPS at 5 ug/ml. The supernatants from treated cells were harvested at 24 h and placed in a 96 well for Luminex cytokine & chemokine profiling using a Luminex 200 multiplex assay (Luminex; R&D system, USA).
The main study arm with triplicate wells per group in a 24-well plate: • 1. Blank • 2. PBMC: 0.5% DMSO • 3. PBMC+LPS (5 ug/ml) • 4. PBMC+YY-101 100 uM • 5. PBMC+YY-101 10 uM • 6. PBMC+YY-101 1 uM • 7. PBMC+YY-101 0.1 uM • 8. PBMC+YY-101 0.01 uM • 9. PBMC+LPS (5 ug/ml)+Xiidra®100 uM • 10. PBMC+LPS (5 ug/ml)+Xiidra® 10 uM • 11. PBMC+LPS (5 ug/ml)+Xiidra® 1 uM • 12. PBMC+LPS (5 ug/ml)+Xiidra®0.1 uM • 13. PBMC+LPS (5 ug/ml)+Xiidra®0.01 uM • 14. PBMC+LPS (5 ug/ml)+Xiidra®0.001 uM • 15. PBMC+LPS (5 ug/ml)+YY-101 100 uM • 16. PBMC+LPS (5 ug/ml)+YY-101 10 uM • 17. PBMC+LPS (5 ug/ml)+YY-101 1 uM • 18. PBMC+LPS (5 ug/ml)+YY-101 0.1 uM • 19. PBMC+LPS (5 ug/ml)+YY-101 0.01 uM • 20. PBMC+LPS (5 ug/ml)+YY-101 0.001 uM • 21. PBMC+LPS (5 ug/ml)+YDE-011 100 uM • 22. PBMC+LPS (5 ug/ml)+YDE-011 10 uM • 23. PBMC+LPS (5 ug/ml)+YDE-011 1 uM • 24. PBMC+LPS (5 ug/ml)+YDE-011 0.1 uM • 25. PBMC+LPS (5 ug/ml)+YDE-011 0.01 uM • 26. PBMC+LPS (5 ug/ml)+YDE-011 0.001 uM • 27. PBMC+LPS (5 ug/ml)+YDE-043 100 uM • 28. PBMC+LPS (5 ug/ml)+YDE-043 10 uM • 29. PBMC+LPS (5 ug/ml)+YDE-043 1 uM • 30. PBMC+LPS (5 ug/ml)+YDE-043 0.1 uM • 31. PBMC+LPS (5 ug/ml)+YDE-043 0.01 uM • 32. PBMC+LPS (5 ug/ml)+YDE-043 0.001 uM
The number of PBMCs was measured after 24 hr of treatment. The culture both and trypan blue were diluted 1:1 and 10 ul was added to Countess cell counting chamber (Thermo fisher, USA). The number of PBMCs was measured using a Countess automated cell counter (Thermo fisher, USA).

[1] = PBMC + LPS(5 ug/ml) + test article 100 uM, Mean
[2] = PBMC + LPS(5 ug/ml) + test article 100 uM, single replicates
[3] = PBMC + LPS(5 ug/ml), test article 0.001 uM, Mean
[4] = PBMC + LPS(5 ug/ml), test article 0.001 uM, single replicates
[5] = PBMC + LPS(5 ug/ml), test article 0.01 uM, Mean
[6] = PBMC + LPS(5 ug/ml), test article 0.01 uM, single replicates
[7] = PBMC + LPS(5 ug/ml), test article 0.1 uM, Mean
[8] = PBMC + LPS(5 ug/ml), test article 0.1 uM, single replicates
[9] = PBMC + LPS(5 ug/ml), test article 1 uM, Mean
[10] = PBMC + LPS(5 ug/ml), test article 1 uM, single replicates
[11] = PBMC + LPS(5 ug/ml), test article 10 uM, Mean
[12] = PBMC + LPS(5 ug/ml), test article 10 uM, single replicates
[13] = PBMC + LPS(5 ug/ml), test article 100 uM, Mean
[14] = PBMC + LPS(5 ug/ml), test article 100 uM, single replicates

SMILES: CC(C)C[C@H](NC(=O)[C@H](CCC(N)=O)NC(=O)CNC(=O)[C@@H]1C[C@@H](O)CN1)C(=O)NCC(=O)O [YDE-043] (H-[Hyp]GQLG-OH; N-terminus and C-terminus assumed)
- Live cell (PBMC + LPS(5 ug/ml) + test article 10 uM, single replicates (1st, 2nd, 3rd)): 5.2 10^5/ml and 5.4 10^5/ml and 5.6 10^5/ml
- Live cell [1]: 6.3 10^5/ml
- Live cell (10^5/ml) [1]: 6.3 10^5/ml
- Live cell, Mean [1]: 6.3 10^5/ml
- Live cell (PBMC + LPS(5 ug/ml) + test article 100 uM, individual replicates): 6.2 10^5/ml and 6.4 10^5/ml
- Live cell (PBMC + LPS(5 ug/ml) + test article 100 uM, individual replicates (1st, 2nd, 3rd)): 6.2 10^5/ml and 6.4 10^5/ml
- Live cell [2]: 6.2 10^5/ml and 6.4 10^5/ml
- Live cell (10^5/ml) [2]: 6.2 10^5/ml and 6.4 10^5/ml
- Live cell (PBMC + LPS(5 ug/ml) + test article 100 uM, single replicates (1st, 2nd, 3rd)): 6.2 10^5/ml and 6.4 10^5/ml
- Live cell (PBMC + LPS(5 ug/ml), 0.001 uM, Mean): 5.0 10^5/ml
- Live cell (PBMC + LPS(5 ug/ml), 0.001 uM, single replicates): 4.4 10^5/ml and 6.0 10^5/ml and 4.6 10^5/ml
- Live cell (PBMC + LPS(5 ug/ml), 0.01 uM, Mean): 5.4 10^5/ml
- Live cell (PBMC + LPS(5 ug/ml), 0.01 uM, single replicates): 4.5 10^5/ml and 6.6 10^5/ml and 5.0 10^5/ml
- Live cell (PBMC + LPS(5 ug/ml), 0.1 uM, Mean): 5.4 10^5/ml
- Live cell (PBMC + LPS(5 ug/ml), 0.1 uM, single replicates): 5.0 10^5/ml and 5.6 10^5/ml (2×)
- Live cell (PBMC + LPS(5 ug/ml), 1 uM, Mean): 5.3 10^5/ml
- Live cell (PBMC + LPS(5 ug/ml), 1 uM, single replicates): 5.8 10^5/ml and 4.8 10^5/ml and 5.3 10^5/ml
- Live cell (PBMC + LPS(5 ug/ml), 10 uM, Mean): 5.4 10^5/ml
- Live cell (PBMC + LPS(5 ug/ml), 10 uM, single replicates): 5.2 10^5/ml and 5.4 10^5/ml and 5.6 10^5/ml
- Live cell (PBMC + LPS(5 ug/ml), 100 uM, Mean): 6.3 10^5/ml
- Live cell (PBMC + LPS(5 ug/ml), 100 uM, single replicates): 6.2 10^5/ml and 6.4 10^5/ml
- Live cell [3]: 5.0 10^5/ml
- Total cell count [3]: 6.3 10^5/ml
- Live cell [4]: 4.4 10^5/ml and 6.0 10^5/ml and 4.6 10^5/ml
- Total cell count [4]: 5.6 10^5/ml (2×) and 7.8 10^5/ml
- Viability [4]: 79.0% and 77.0% and 82.0%
- Live cell [5]: 5.4 10^5/ml
- Total cell count [5]: 6.9 10^5/ml
- Live cell [6]: 4.5 10^5/ml and 6.6 10^5/ml and 5.0 10^5/ml
- Total cell count [6]: 6.2 10^5/ml and 7.3 10^5/ml and 7.2 10^5/ml
- Live cell [7]: 5.4 10^5/ml
- Total cell count [7]: 6.6 10^5/ml
- Live cell [8]: 5.0 10^5/ml and 5.6 10^5/ml
- Total cell count [8]: 6.8 10^5/ml and 6.4 10^5/ml and 6.5 10^5/ml
- Viability [8]: 74.0% and 87.0% and 85.0%
- Live cell [9]: 5.3 10^5/ml
- Total cell count [9]: 6.8 10^5/ml
- Live cell [10]: 5.8 10^5/ml and 4.8 10^5/ml and 5.3 10^5/ml
- Total cell count [10]: 6.9 10^5/ml and 5.7 10^5/ml and 7.8 10^5/ml
- Viability [10]: 83.0% (2×) and 68.0%
- Live cell [11]: 5.4 10^5/ml
- Total cell count [11]: 6.4 10^5/ml
- Live cell [12]: 5.2 10^5/ml and 5.4 10^5/ml and 5.6 10^5/ml
- Total cell count [12]: 6.4 10^5/ml and 6.7 10^5/ml and 6.2 10^5/ml
- Viability [12]: 80.0% (2×) and 90.0%
- Live cell [13]: 6.3 10^5/ml
- Total cell count [13]: 7.6 10^5/ml
- Live cell [14]: 6.2 10^5/ml and 6.4 10^5/ml
- Total cell count [14]: 7.0 10^5/ml and 8.1 10^5/ml
- Viability [14]: 89.0% and 80.0%
- which treatments consistently affected the total and live number of PBMCs or the percent viability (in words) (up to 100 μM, 24-hour treatment): none of
